From patent US4902791A, “Nitrosourea derivatives, process for their preparation and medicaments containing them” (Sanofi S.A., priority 1983, dated 1990)

Assays:
[1] = toxicological study, lethal doses (Table IA); details: mouse, in vivo
Description: The results relating to toxicology are brought together in Table IA below:

[2] = system: L1210 U.S.A. strain; experiment: antitumor activity on leukemia L1210 U.S.A., compounds of formula IA, I.P.; assay type: in vivo, mouse
Protocol: On the day of the graft (by convention day 0=DO) an inoculum of 1×10^5 tumor cells in a volume of 0.2 ml is administered to each mouse by the intraperitoneal route (I.P.).
(§1) This inoculum is prepared by diluting ascites fluid taken from the peritoneum of a donor female mouse in NCTC 109 medium (Eurobio Laboratories Paris, France), counting of the cells in a MALASSEZ cell under a microscope and adjustment of the concentration to 5×10^5cells per ml.
After the tumor graft has been made, the mice are distributed at random in cages of 5 animals. Subsequently, these cages containing 5 mice are themselves distributed at random into a control group (control) and groups treated with the products of the invention.
(§2) The doses of the products of the invention used in the different experiments are expressed in milligrams per kilogram of body weight.
(§3) The products to be injected were dissolved in isotonic sodium chloride solution.
Two protocols for treatment were used in the different experiments:
(§4) or 3 I.P. injections on D1, D5, D9.
(§5) In each experiment the animals of the control group received 1 or more injections, depending on the experimental protocol used, by the same route (I.P. or I.V.) of the same volume (0.2 ml/20 g) of the vehicle not containing the active principle (isotonic sodium chloride solution).
(§6) the number and percentage of the total of the mice surviving to D60,
(§7) the T/C×100 for treated groups.
(§8) T representing the mean survival time of the mice in the treated group
(§9) C representing the mean survival time of the mice in the control group (control).

[3] = system: melanoma B16; experiment: antitumor activity on melanoma B16, compounds of formula IA, I.P.; assay type: in vivo, mouse; details: B6 D2 F1, I.P. D1, D5, D9, 3×10 mg/kg
Protocol: The experiments were always carried out on SPF female mice B6 D2 F1/JIco (first generation hybrids between the lines C5BL/6 and DBA/2).
(§10) On the day of the graft (Day 0) an inoculum of 2×10^6 tumor cells in a volume of 0.5 ml is administered to each mouse by the intraperitoneal route (I.P.). This inoculum is prepared from a sub-cutaneous tumor excised from a donor female mouse. After excision the tumor is fragmented by means of a pair of scissors in the NCTC 109 medium. After filtration through sterile gauze in order to remove large cellular fragments, the homogeneous cell suspension obtained is counted by means of a MALASSEZ cell and diluted to the desired concentration (4×10^6 tumor cells per ml) by dilution with the NCTC 109 medium.
This was performed in the manner described previously for the leukemia L1210.
as §2, §3, §4, §5, §6, §7, §8, §9

[4] = system: L1210 U.S.A.; experiment: antitumor activity on leukemia L1210 U.S.A., products of examples 33-39, I.P.; assay type: in vivo, mouse
Protocol: The experiments were always carried out on female mice which were specific pathogen-free (S. P. F.),
either of the line DBA/2JIco
or of the line B6 D2 F1/JIco (first generation hybrids between the lines C57BL/6 and DBA/2).
On the day of the graft (by convention day 0=D0) an inoculum of 1×10^5 tumor cells in a volume of 0.2 ml is administered to each mouse by the intraperitoneal route (I.P.).
as §1, with “Laboratories,” for “Laboratories”, “[…] by means of the same medium.” for “ml.”
The tumor line is an American strain of the line L1210.
After the tumor graft, the mice are distributed at random in cages of 5 animals. Subsequently, these cages containing 5 mice are themselves distributed at random into a control group (control) and groups treated with the I.C. products.
as §2, §3
2 protocols for treatment were used in the different experiments:
either a single injection on D1, by the intraperitoneal (I.P.) or intravenous (I.V.) route,
as §4
(§11) In each experiment the animals of the control group received 1 or more injections, depending on the experimental protocol used, by the same route (I.P. or I.V.) of the same volume (0.2 ml/20 g) of the vehicle without the active principle (isotonic sodium chloride solution).
as §6
(§12) the T/C×100 for the treated groups.
(§13) T representing the mean survival time of the mice in the treated group,
(§14) C representing the mean survival time of the mice in the control group (controls).

[5] = system: melanoma B16; experiment: antitumor activity on melanoma B16, products of examples 33-39, I.P.; assay type: in vivo, mouse; details: B6 D2 F1, I.P. D1, D5, D9, 3×10 mg/kg
Protocol: The experiments are always carried out on SPF female mice, B6 D2 F1/JIco (first generation hybrids between the lines C57BL/6 and DBA/2).
as §10, with “(day 0),” for “(Day 0)”, “(4×10^6tumor” for “(4×10^6 tumor”
This was performed in the manner described for the leukemia L1210 (see above).
as §2, §3, §4, §11, §6, §12, §13, §14

[6] = toxicological results, single I.P. dose, DL0 and DL50; assay type: in vivo, mouse; details: mice
Description: DL0, DL50, single I.P. dose administered to the aforementioned strains of mice.

[7] = B6 D2 F1, I.P. D1, D5, D9, 3×1.25 mg/kg
[8] = B6 D2 F1, I.P. D1, D5, D9, 3×5 mg/kg
[9] = B6 D2 F1, I.P. D1, D5, D9, 3×10 mg/kg
[10] = DBA2, I.P. D1, D5, D9, 3×5 mg/kg

## CO[C@H]1O[C@H](CO)[C@H](Cl)[C@H](NC(=O)N(CCCl)N=O)[C@H]1O [CI. 1676, methyl 4-chloro 3-[3-(2-chloro-ethyl) 3-nitrosoureido] 3,4-dideoxy-α-D-galacto-hexopyranoside]
[1]
  LD0: ≥ 20 mg/kg
[2]; [7]
  Number of survivors at D60: 0/10
  T/C: 136
[2]; [8]
  Number of survivors at D60: 0/10
  T/C: 188
[3]
  Number of survivors at D60: 3/10
  T/C: 202

## CO[C@H]1O[C@H](CO)C[C@H](NC(=O)N(CCCl)N=O)[C@H]1O [CI. 1677, methyl 3-[3-(2-chloroethyl) 3-nitroso-ureido] 3,4-dideoxy-α-D-xylo-hexopyranoside]
[1]
  LD90: ≤ 20 mg/kg
[2]; [7]
  Number of survivors at D60: 0/10
  T/C: 157
[2]; [8]
  Number of survivors at D60: 6/10
  T/C: > 600
[3]
  Number of survivors at D60: 7/10
  T/C: 257

## CO[C@@H]1O[C@H](C)C[C@H](NC(=O)N(CCCl)N=O)[C@H]1O [IC. 85-1591, methyl 3-[3-(2-chloroethyl) 3-nitrosoureido] 3,4,6-trideoxyβ-D-xylo-hexopyranoside]
[4]; [7]
  Number of survivors: 0/10
  T/C: 116
[4]; [8]
  Number of survivors: 2/10
  T/C: 217
[4]; [9]
  Number of survivors on D60: 8/10
  T/C: 600
[4]; DBA2, I.P. D1, 1×20 mg/kg
  Number of survivors on D60: 7/10
  T/C: > 600
[4]; [10]
  Number of survivors on D60: 6/10
  T/C: > 600
[5]
  Number of survivors: 3/10
  T/C: 194
[6]
  DL0: ≥ 20 mg/kg
[6]; mouse, in vivo, ip
  LD50: ~40 mg/kg
